# Where two headings read alike, the source gives them in different places.
# Legend:
# [1] = target: PTPN11-E76K mutant enzyme (Homo sapiens (Human), UniProt Q06124, E76K); assay: PTPN11 enzymatic assay (DiFMUP phosphatase activity); format: biochemical; conditions: full length PTPN11-E76K mutant, 250 pM enzyme, DiFMUP 50 μM substrate
# Experimental: Reaction was initiated by addition of DiFMUP (50 μM) at room temperature in 384-well black plate with a final reaction volume of 20 uL in assay buffer. After 1 hour, DiFMUP fluorescence signal was measured (Ex:340/Em:460) using Envision plate reader. Dose-response curves were analyzed using IC50 regression curve fitting (GeneData Screener). Curves were normalized to a high controls without inhibitor, and low controls without enzyme.
# KYSE-520 cells = assay: pERK AlphaScreen; format: cell-based; conditions: Homo sapiens
# Experimental: KYSE-520 cells (10 k cells/well) were grown in 384-well plate in 20 uL of medium (RPMI-1640, without phenol red, containing 10% FBS) at 37° C. with 5% CO2 overnight. DMSO (control) or increasing concentrations of compounds were diluted in medium, added to the 384-well plate (5 uL/well, final DMSO concentration of 1%), and cells were then incubated with compounds for 2 hr. Phospho-ERK levels were measured using phospho-ERK1/2 AlphaScreen SureFire (PerkinElmer, TGRESB10K) following manufacturer's recommendations. Dose-response curves were analyzed using IC50 regression curve fitting (GeneData Screener). Curves were normalized to a high control without inhibitor (DMSO only), and low control (1 μM selumetinib).
# [2] = KYSE-520 cells, 2 hr incubation, phospho-ERK1/2 AlphaScreen SureFire, read-out: pERK Avg IC50
# [3] = KYSE-520, 2 h, read-out: pERK Avg IC50 (nM)
# Sequence of PTPN11-E76K mutant enzyme (Q06124 whole entry E76K): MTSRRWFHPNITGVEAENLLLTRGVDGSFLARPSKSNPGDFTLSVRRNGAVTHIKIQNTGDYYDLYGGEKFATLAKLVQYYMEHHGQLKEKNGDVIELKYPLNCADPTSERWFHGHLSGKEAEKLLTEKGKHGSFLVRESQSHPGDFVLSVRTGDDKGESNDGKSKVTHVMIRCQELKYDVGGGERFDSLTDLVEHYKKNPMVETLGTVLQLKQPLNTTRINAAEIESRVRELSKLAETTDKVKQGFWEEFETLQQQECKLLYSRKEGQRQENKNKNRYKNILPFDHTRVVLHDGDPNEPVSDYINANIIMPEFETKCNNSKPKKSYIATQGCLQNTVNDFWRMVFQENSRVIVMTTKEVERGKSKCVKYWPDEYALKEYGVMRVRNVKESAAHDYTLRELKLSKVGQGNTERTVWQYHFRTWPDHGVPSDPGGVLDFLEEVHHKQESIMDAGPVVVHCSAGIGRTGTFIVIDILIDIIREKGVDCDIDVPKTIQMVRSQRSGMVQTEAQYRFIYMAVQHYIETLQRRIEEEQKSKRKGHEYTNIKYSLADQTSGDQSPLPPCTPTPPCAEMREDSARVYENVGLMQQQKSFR
SMILES,IC50 [1],IC50 (KYSE-520 cells; [2]),IC50 (KYSE-520 cells; [3])
"Cc1nc2c(-c3cccc(Cl)c3Cl)n[nH]c2nc1N1CCC(C)(N)CC1 [Example 1, 1-(3-(2,3-dichlorophenyl)-5-methyl-1H-pyrazolo[3,4-b]pyrazin-6-yl)-4-methylpiperidin-4-amine]",0.068 µM,93 nM,–
"CCNc1nccc(-c2n[nH]c3nc(N4CCC5(CC4)CO[C@@H](C)[C@H]5N)c(C)nc23)c1Cl [Example 18, (3S,4S)-8-(3-(3-chloro-2-(ethylamino)pyridin-4-yl)-5-methyl-1H-pyrazolo[3,4-b]pyrazin-6-yl)-3-methyl-2-oxa-8-azaspiro[4.5]decan-4-amine 2,2,2-trifluoroacetate]",0.009 µM,–,20 nM
"C[C@@H]1OCC2(CCN(c3nc4[nH]nc(-c5cccc(OC6COC6)c5Cl)c4nc3CO)CC2)[C@@H]1N [Example 21, (6-((3S,4S)-4-amino-3-methyl-2-oxa-8-azaspiro[4.5]decan-8-yl)-3-(2-chloro-3-(oxetan-3-yloxy)phenyl)-1H-pyrazolo[3,4-b]pyrazin-5-yl)methanol]",0.558 µM,2710 nM,–
"CC1(N)CCN(c2nc3[nH]nc(-c4cccc(Cl)c4Cl)c3nc2CF)CC1 [Example 15, 1-(3-(2,3-dichlorophenyl)-5-(fluoromethyl)-1H-pyrazolo[3,4-b]pyrazin-6-yl)-4-methylpiperidin-4-amine]",0.001 µM,0.4 nM,–
"C[C@@H]1OCC2(CCN(c3nc4[nH]nc(-c5ccnc(OC6COC6)c5Cl)c4nc3CO)CC2)[C@@H]1N [Example 22, (6-((3S,4S)-4-amino-3-methyl-2-oxa-8-azaspiro[4.5]decan-8-yl)-3-(3-chloro-2-(oxetan-3-yloxy)pyridin-4-yl)-1H-pyrazolo[3,4-b]pyrazin-5-yl)methanol]",0.048 µM,3370 nM,–
"CC1(N)CCN(c2nc3[nH]nc(-c4cccc(Cl)c4Cl)c3nc2C(N)=O)CC1 [Example 8, 6-(4-amino-4-methylpiperidin-1-yl)-3-(2,3-dichlorophenyl)-1H-pyrazolo[3,4-b]pyrazine-5-carboxamide]",0.09 µM,–,–
"CC1(N)CCN(c2nc3[nH]nc(-c4cccc(Cl)c4Cl)c3nc2Br)CC1 [Example 2, 1-(5-bromo-3-(2,3-dichlorophenyl)-1H-pyrazolo[3,4-b]pyrazin-6-yl)-4-methylpiperidin-4-amine]",0.317 µM,580 nM,–
"CC1(N)CCN(c2nc3[nH]nc(-c4cccc(Cl)c4Cl)c3nc2C(F)F)CC1 [Example 14, 1-(3-(2,3-dichlorophenyl)-5-(difluoromethyl)-1H-pyrazolo[3,4-b]pyrazin-6-yl)-4-methylpiperidin-4-amine]",0.022 µM,36 nM,–
"CC1(N)CCN(c2nc3[nH]nc(-c4cccc(Cl)c4Cl)c3nc2-c2cc[nH]n2)CC1 [Example 5, 1-(3-(2,3-dichlorophenyl)-5-(1H-pyrazol-3-yl)-1H-pyrazolo[3,4-b]pyrazin-6-yl)-4-methylpiperidin-4-amine]",0.397 µM,1970 nM,–
"CC(O)c1nc2c(-c3cccc(Cl)c3Cl)n[nH]c2nc1N1CCC(C)(N)CC1 (stereo not drawn) [Example 12, 1-(6-(4-amino-4-methylpiperidin-1-yl)-3-(2,3-dichlorophenyl)-1H-pyrazolo[3,4-b]pyrazin-5-yl)ethanol]",0.372 µM,326 nM,–
"CCNc1nccc(-c2n[nH]c3nc(N4CCC5(CC4)CO[C@@H](C)[C@H]5N)c(Cl)nc23)c1Cl [Example 19, (3S,4S)-8-(5-Chloro-3-(3-chloro-2-(ethylamino)pyridin-4-yl)-1H-pyrazolo[3,4-b]pyrazin-6-yl)-3-methyl-2-oxa-8-azaspiro[4.5]decan-4-amine]",0.006 µM,1 nM,–
"CC1(N)CCN(c2nc3[nH]nc(-c4cccc(Cl)c4Cl)c3nc2O)CC1 [Example 3, 6-(4-amino-4-methylpiperidin-1-yl)-3-(2,3-dichlorophenyl)-1H-pyrazolo[3,4-b]pyrazin-5-ol]",0.96 µM,2000 nM,–
"CNc1nccc(-c2n[nH]c3nc(N4CCC(C)(N)CC4)c(CO)nc23)c1Cl [Example 11, (6-(4-amino-4-methylpiperidin-1-yl)-3-(3-chloro-2-(methylamino)pyridin-4-yl)-1H-pyrazolo[3,4-b]pyrazin-5-yl)methanol]",0.017 µM,–,–
"CC1(N)CCN(c2nc3[nH]nc(-c4cccc(Cl)c4Cl)c3nc2Cl)CC1 [Example 10, 1-(5-chloro-3-(2,3-dichlorophenyl)-1H-pyrazolo[3,4-b]pyrazin-6-yl)-4-methylpiperidin-4-amine]",0.277 µM,502 nM,–
"CC1(N)CCN(c2nc3[nH]nc(-c4cccc(Cl)c4Cl)c3nc2C#N)CC1 [Example 4, 6-(4-amino-4-methylpiperidin-1-yl)-3-(2,3-dichlorophenyl)-1H-pyrazolo[3,4-b]pyrazine-5-carbonitrile]",0.465 µM,–,–
"CC1(N)CCN(c2nc3[nH]nc(-c4cccc(Cl)c4Cl)c3nc2C(=O)NO)CC1 [Example 13, 6-(4-Amino-4-methylpiperidin-1-yl)-3-(2,3-dichlorophenyl)-N-hydroxy-1H-pyrazolo[3,4-b]pyrazine-5-carboxamide]",0.224 µM,704 nM,–
"C[C@@H]1OCC2(CCN(c3nc4[nH]nc(-c5cccc(Cl)c5Cl)c4nc3CO)CC2)[C@@H]1N [Example 16, (6-((3S,4S)-4-amino-3-methyl-2-oxa-8-azaspiro[4.5]decan-8-yl)-3-(2,3-dichlorophenyl)-1H-pyrazolo[3,4-b]pyrazin-5-yl)methanol]",–,2 nM,–
"CNc1nccc(-c2n[nH]c3nc(N4CCC5(CC4)CO[C@@H](C)[C@H]5N)c(CO)nc23)c1Cl [Example 20, (6-((3S,4S)-4-Amino-3-methyl-2-oxa-8-azaspiro[4.5]decan-8-yl)-3-(3-chloro-2-(methylamino)pyridin-4-yl)-1H-pyrazolo[3,4-b]pyrazin-5-yl)methanol]",0.003 µM,2 nM,–
"CCNc1nccc(-c2n[nH]c3nc(N4CCC5(CC4)CO[C@@H](C)[C@H]5N)c(CO)nc23)c1Cl [Example 17, (6-((3S,4S)-4-amino-3-methyl-2-oxa-8-azaspiro[4.5]decan-8-yl)-3-(3-chloro-2-(ethylamino)pyridin-4-yl)-1H-pyrazolo[3,4-b]pyrazin-5-yl)methanol]",–,9 nM,–
"COc1nc2c(-c3cccc(Cl)c3Cl)n[nH]c2nc1N1CCC(C)(N)CC1 [Example 6, 1-(3-(2,3-dichlorophenyl)-5-methoxy-1H-pyrazolo[3,4-b]pyrazin-6-yl)-4-methylpiperidin-4-amine bis(2,2,2-trifluoroacetate)]",0.95 µM,–,3820 nM
"CC1(N)CCN(c2nc3[nH]nc(-c4cccc(Cl)c4Cl)c3nc2C=O)CC1 [Example 9, 6-(4-amino-4-methylpiperidin-1-yl)-3-(2,3-dichlorophenyl)-1H-pyrazolo[3,4-b]pyrazine-5-carbaldehyde]",0.19 µM,647 nM,–
"CC1(N)CCN(c2nc3[nH]nc(-c4cccc(Cl)c4Cl)c3nc2CO)CC1 [Example 7, (6-(4-amino-4-methylpiperidin-1-yl)-3-(2,3-dichlorophenyl)-1H-pyrazolo[3,4-b]pyrazin-5-yl)methanol]",0.019 µM,97 nM,–

# Reference: patent publication US10954243B2, “Substituted heterocyclic inhibitors of PTPN11” (NAVIRE PHARMA, INC., priority 2018, dated 2021)
